Reference: US20030157491A1, “HarA polypeptides and nucleic acids, and related methods and uses thereof” (priority 2002, published 2003)
≈ marks a conversion by molar mass, not a printed value.

Columns and labels:
SA1 (pMP20) = assay: MIC by broth microdilution, S. aureus RN4220 with vector only (pMP20); type: cell-based, Staphylococcus aureus
Protocol: (§1) To identify genes whose products might be important in establishing the intrinsic level of resistance to hygromycins, applicants screened a recombinant library of B. subtilis chromosomal DNA segments cloned into the E. coli-S. aureus shuttle vector pMP20 for S. aureus transformants with increased levels of resistance to a hygromycin analogue, as follows:
(§2) Chromosomal DNA was extracted from a 100 mL culture of B. subtilis strain JH642 grown in L both, partially digested with Sau3A and fractionated by electrophoresis in a 1% agarose gel. A fraction corresponding in size to 2-4 kb was purified and used for ligation with pMP20 that had been digested with BamHI and dephosphorylated with alkaline phosphatase. Ligated DNA was used to transform E. coli DH5α by electroporation, with selection for ampicillin resistance. Transformant colonies were pooled; the plasmid DNA mixture was extracted and used to transform S. aureus RN4220 by electroporation with selection on plates containing erythromycin (2 μg/mL) and 2 μg/mL of a nonpolar hygromycin A analogue, 3-(4-((2S,4S,5R)-5-(3-(2,4-dichloro-phenoxy)-1-methyl)-(1E)-propenyl)-4-hydroxy-tetrahydro-furan-2-yloxy)-3-hydroxy-phenyl)-2-methyl-N-((3aS,4R,5R,6S,7R,7aR)-4,6,7-trihydroxy-hexahydro-benzo(1,3)dioxol-5-yl)-(2E)-acrylamide, which is Example 68 of WO 00/32616 and referred to herein as “Compound 1”.
(§3) Vector-transformed S. aureus cells were sensitive to this level of Compound 1. Plasmid segregation and backcross experiments confirmed that plasmids harboring DNA segments from the B. subtilis chromosome conferred hygromycin A resistance in S. aureus. The MIC for Compound 1 was increased in these strains from ≦0.2 μg/mL for pMP20 transformants to 50 μg/mL for cells transformed with the recombinant plasmids.
(§4) Quantitative assessment of resistance was performed by a broth microdilution method using cation-supplemented Mueller-Hinton broth containing antibiotics, the concentration of which varied in two-fold increments.
(§5) Preferably, the microdilution assay is performed using cation-adjusted Mueller-Hinton broth according to NCCLS (National Committee for Clinical Laboratory Standards) guideline M31 -A, Vol. 19, No. 11, “Performance standards for antimicrobial disk and dilution susceptibility tests for bacteria isolated from animals,” June 1999 (ISBN 1-56238-377-9), which is herein incorporated by reference.
(§6) To confirm the role of expZ in conferring resistance to hygromycin A analogues and other compounds, applicants examined the effect of B. subtilis and E. faecalis expZ expression and disruption on antibiotic resistance patterns. […] Also shown in Table 1 is the conferral of the “harA” phenotype on the normally drug-sensitive S. aureus RN4220 strain by transformation with a pMP plasmid containing B. subtilis harA.

EF1 (harA::erm) = assay: MIC by broth microdilution, E. faecalis OG1X harA disruption mutant; type: cell-based, Enterococcus faecalis; settings: for decrease in the MIC when the harA gene is disrupted: E. faecalis OG1X; for MIC: EF1 (harA::erm), disruption mutant, broth microdilution, duplicate; for susceptibility of strain OG1X harA::erm: E. faecalis harA::erm knockout strain
Source text: A PCR product corresponding to an internal segment of the E. faecalis harA gene was generated to obtain pVA891 -expZ by using the E. coli vector pVA891, which carries an ERM determinant that expresses in E. coli and E. faecalis. Briefly, internal harA primers were used (sense: 5′-[…]-3′-SEQ ID NO: 5); (antisense: 5′-[…]-3′-SEQ ID NO: 6) with E. faecalis genomic template DNA to generate a 665 bp PCR product. PCR-generated fragments were purified using the QIAquick PCR purification kit and cloned into the T-A cloning plasmid pGem-T Easy. The fragment was subsequently excised using EcoRI, gel purified using the S&S Elu-Quik kit, and cloned into the EcoRI site of pVA891. The ligation was transformed in E. coli DH5α with selection for erythromycin resistance (200 μg/mL); resulting in pVA891-expZ. The plasmid pVA891-expz was introduced by electroporation into E. faecalis OG1X (hygromycin resistant), where integrants occurring via homologous recombination were selected using erythromycin (20 μg/mL). The harA::erm knockout strain was confirmed by PCR and designated “OG1X harA::erm.” Strain OG1X harA::erm was hypersensitive to nonpolar hygromycin A analogues, lankacidin, virginiamycin and Synercid®. Revertants (i.e., resistant strains) could be obtained by growing for several generations in the absence of erythromycin and identified by screening for resistance to hygromycin A and sensitivity to erythromycin. Strain OG1X harA::erm was deposited with the ATCC on Sep. 26, 2000, and was accorded Accession No. PTA-2550.
as §4, §5, §6

[1] = test system: B. subtilis JH642 trpC2 pheA1 ("BS1"); assay: MIC by broth microdilution, wild-type resistant B. subtilis JH642; type: cell-based, Bacillus subtilis; settings: duplicate
Protocol: as §4, §5, §6

S. aureus RN4220 ("SA1") = assay: MIC by broth microdilution, wild-type sensitive S. aureus RN4220; type: cell-based, Staphylococcus aureus; settings: duplicate
Protocol: as §4, §5, §6

BS1 (harA::cat) = assay: MIC by broth microdilution, B. subtilis JH642 harA disruption mutant; type: cell-based, Bacillus subtilis; settings: for MIC: BS1 (harA::cat), disruption mutant, broth microdilution, duplicate; for susceptibility of strain JH642 expZ::CAT: B. subtilis harA::CAT insertion mutant
Source text: A B. subtilis strain expressing a harA::CAT insertion mutant was produced by single-crossover recombination using integrative plasmid pJPM1. Plasmid pJPM1 is a pSK^− derivative that carries the cat gene of S. aureus plasmid pC194 that confers chloramphenicol resistance in B. subtilis. […] However, if any DNA fragment providing a region of homology with the B. subtilis chromosome is inserted into this plasmid, it acquires the ability to transform B. subtilis competent cells to cat resistance at high frequency. The integration occurs via a Campbell-type (single crossover) recombination event that results in the duplication of the cloned region at either end of the vector. Reversal of the integration event leads to precise excision of the plasmid and restoration of gene structure on the chromosome. An internal fragment of the B. subtilis harA gene was excised using EcoRV and EcoRI and subcloned into compatible sites in pJPM1 creating plasmid pJPM1-expZ1. Plasmid pJPM1-expZ1 was used to transform the naturally competent B. subtilis strain JH642 (hygromycin-resistant) and transformants selected using chloramphenicol ([…]). A harA::CAT insertion mutant was confirmed by PCR and the strain was designated “JH642 expZ::CAT.” Strain JH642 expZ::CAT was hypersensitive to hygromycin analogues and other unrelated antibiotics including lankacidin and virginiamycin. Strain JH642 expZ::CAT was deposited with the ATCC on Sep. 26, 2000, and accorded Accession No. PTA-2480.
as §4, §5, §6

[2] = test system: E. faecalis OGX1 str gel ("EF1"); assay: MIC by broth microdilution, wild-type resistant E. faecalis OG1X; type: cell-based, Enterococcus faecalis; settings: duplicate
Protocol: as §4, §5, §6

SA1 (pMP20 Bs_harA+) = assay: MIC by broth microdilution, S. aureus RN4220 with vector carrying B. subtilis harA; type: cell-based, Staphylococcus aureus; settings: for increase in the MIC: sensitive S. aureus strain compared to same strain transformed with and expressing harA
Protocol: as §1, §2, §3, §4, §5, §6

[3] = SA1 (pMP20), wild-type, sensitive + vector only, broth microdilution, duplicate
[4] = SA1 (pMP20 Bs_harA+), sensitive + vector with B. subtilis harA, broth microdilution, duplicate

| Molecule | MIC (SA1 (pMP20); [3]) | decrease in the MIC when the harA gene is disrupted (EF1 (harA::erm)) | MIC (EF1 (harA::erm)) | MIC [1] [µg/mL] | MIC (S. aureus RN4220 ("SA1")) | MIC (BS1 (harA::cat)) | MIC [2] [µg/mL] | MIC (SA1 (pMP20 Bs_harA+); [4]) [µg/mL] | sensitivity of vector-transformed S. aureus cells on selection plates (SA1 (pMP20); 2 μg/mL of compound on plates) | MIC (SA1 (pMP20); S. aureus pMP20 transformants (library selection, text)) [µg/mL] | MIC (SA1 (pMP20 Bs_harA+); S. aureus cells transformed with the recombinant plasmids carrying B. subtilis DNA segments) [µg/mL] | increase in the MIC (SA1 (pMP20 Bs_harA+)) | decrease in the MIC when the harA gene is disrupted (BS1 (harA::cat); B. subtilis JH642) | susceptibility of strain OG1X harA::erm (EF1 (harA::erm)) | susceptibility of strain JH642 expZ::CAT (BS1 (harA::cat)) |
| --- | --- | --- | --- | --- | --- | --- | --- | --- | --- | --- | --- | --- | --- | --- | --- |
| 5-deoxy-5[4-[(2,6-dideoxy-β-D-erythro-hexofuranos-5-ulos-1-yl)oxy]-3-hydroxyphenyl]-2-methyl-1-oxo-2-(E)-propenyl]amino]-1,2-O-methylene-D-neo-inositol, (E)-O-[(3-chlorophenyl)methyl]oxime [Compound 2] | ≦0.2 μg/mL | greater than 4 fold | ≦0.2 μg/mL | 100 | ≦0.2 μg/mL | 0.39 µg/mL | 1.25 | 50 | – | – | – | – | – | – | – |
| C/C(=C\c1ccc(O[C@H]2C[C@H](O)[C@@H](/C(C)=C/COc3ccc(Cl)cc3Cl)O2)c(O)c1)C(=O)N[C@@H]1[C@H](O)[C@@H](O)[C@H]2OCO[C@H]2[C@@H]1O [Compound 1] | ≦0.2 μg/mL | – | ≦0.2 μg/mL | 50 (≈ 74.8 µM) | ≦0.2 μg/mL | ≦0.2 μg/mL | 1.25 (≈ 1.87 µM) | 100 | sensitive | ≤ 0.2 | 50 | ~500 fold | – | – | – |
| C/C(=C\c1ccc(O[C@@H]2O[C@H](/C(C)=N/OCc3cccc(Cl)c3)[C@@H](O)[C@@H]2O)c(O)c1)C(=O)N[C@@H]1[C@H](O)[C@@H](O)[C@H]2OCO[C@H]2[C@@H]1O [Compound 3, 5-deoxy-5-[[3-[4-[(6-deoxy-β-D-arabino-hexofuranos-5-ulos-1-yl)oxy]-3-hydroxyphenyl]-2-methyl-1-oxo-2-(E)-propenyl]amino]-1,2-O-methylene-D-neo-inositol, (E)-O-[(3-chlorophenyl)methyl]oxime] | 0.39 µg/mL | – | ≦0.2 μg/mL | >100 | 0.39 µg/mL (≈ 0.599 µM) | 0.78 µg/mL | 1.56 (≈ 2.4 µM) | >100 | – | – | – | – | – | – | – |
| CC(=O)[C@H]1O[C@@H](Oc2ccc(/C=C(\C)C(=O)N[C@@H]3[C@H](O)[C@@H](O)[C@H]4OCO[C@H]4[C@@H]3O)cc2O)[C@@H](O)[C@@H]1O [Hygromycin A] | – | – | 7.8 µg/mL | 250 (≈ 489 µM) | 31.3 µg/mL (≈ 61.2 µM) | 15.6 µg/mL | 62.5 (≈ 122 µM) | 250 | – | – | – | about 8 fold | about 16 fold | – | – |
| CC1=C\[C@@H](O)CC(=O)Cc2nc(co2)C(=O)N2CCC=C2C(=O)O[C@H](C(C)C)[C@H](C)/C=C/C(=O)NC\C=C\1 [Virginiamycin A] | 0.78 µg/mL | – | 1.56 µg/mL | 25 (≈ 47.6 µM) | 0.78 µg/mL (≈ 1.48 µM) | 0.78 µg/mL | 25 (≈ 47.6 µM) | 50 | – | – | – | – | – | hypersensitive | hypersensitive |
| Lankacidin | – | greater than 100 fold | 0.39 µg/mL | >100 | 3.13 µg/mL | 1.56 µg/mL | >100 | >100 | – | – | – | – | – | hypersensitive | hypersensitive |
